± gives the expanded uncertainty stated by the source.
Legend:
[1] = 100 kPa, Liquid; for viscosity: Falling or rolling sphere viscometry; for mass density: Vibrating tube method
[2] = xn = mol fraction of the nth substance listed; details: 100 kPa, Liquid, x1 = 1; for viscosity: Falling or rolling sphere viscometry; for mass density: Vibrating tube method

**Q.** Which viscosity ([1]; 293.15 K) does the source give for `CCCCCCCCCC(=O)OC` [methyl decanoate] here?
**A.** 2.125 ± 0.047 mPa·s

**Q.** And the mass density ([1]; 293.15 K)?
**A.** 872.25 ± 1.8 kg/m3

**Q.** And the viscosity ([1]; 298.15 K)?
**A.** 1.909 ± 0.042 mPa·s

**Q.** What about the mass density ([1]; 298.15 K) of the same molecule?
**A.** 868.16 ± 1.8 kg/m3

**Q.** And the viscosity ([1]; 303.15 K)?
**A.** 1.738 ± 0.038 mPa·s

**Q.** And the mass density ([1]; 303.15 K)?
**A.** 864.06 ± 1.8 kg/m3

**Q.** And the viscosity ([1]; 308.15 K)?
**A.** 1.588 ± 0.035 mPa·s

**Q.** What about the mass density ([1]; 308.15 K) of the same molecule?
**A.** 859.96 ± 1.7 kg/m3

**Q.** What about the viscosity ([1]; 313.15 K) of the same molecule?
**A.** 1.453 ± 0.032 mPa·s

**Q.** What about the mass density ([1]; 313.15 K) of the same molecule?
**A.** 855.85 ± 1.7 kg/m3

**Q.** What about the viscosity ([1]; 318.15 K) of the same molecule?
**A.** 1.341 ± 0.029 mPa·s

**Q.** What about the mass density ([1]; 318.15 K) of the same molecule?
**A.** 851.74 ± 1.7 kg/m3

**Q.** What about the viscosity ([1]; 323.15 K) of the same molecule?
**A.** 1.245 ± 0.027 mPa·s

**Q.** What about the mass density ([1]; 323.15 K) of the same molecule?
**A.** 847.62 ± 1.7 kg/m3

**Q.** Which results are given for `CCCCCCCCCCCC(=O)OC` [methyl dodecanoate]?
**A.** viscosity ([1]; 293.15 K): 3.151 ± 0.067 mPa·s; mass density ([1]; 293.15 K): 869.3 ± 1.7 kg/m3; viscosity ([1]; 298.15 K): 2.792 ± 0.06 mPa·s; mass density ([1]; 298.15 K): 865.39 ± 1.7 kg/m3; viscosity ([1]; 303.15 K): 2.504 ± 0.054 mPa·s; mass density ([1]; 303.15 K): 861.46 ± 1.7 kg/m3; viscosity ([1]; 308.15 K): 2.263 ± 0.048 mPa·s; mass density ([1]; 308.15 K): 857.53 ± 1.7 kg/m3; viscosity ([1]; 313.15 K): 2.049 ± 0.044 mPa·s; mass density ([1]; 313.15 K): 853.61 ± 1.7 kg/m3; viscosity ([1]; 318.15 K): 1.875 ± 0.04 mPa·s; mass density ([1]; 318.15 K): 849.69 ± 1.7 kg/m3; viscosity ([1]; 323.15 K): 1.729 ± 0.037 mPa·s; mass density ([1]; 323.15 K): 845.76 ± 1.7 kg/m3

**Q.** Which viscosity ([1]; 293.15 K) does the source give for `CCCCCCCCCCCCCC(=O)OC` [methyl tetradecanoate] here?
**A.** 4.557 ± 0.1 mPa·s

**Q.** What about the mass density ([1]; 293.15 K) of the same molecule?
**A.** 867.17 ± 1.8 kg/m3

**Q.** What about the viscosity ([1]; 298.15 K) of the same molecule?
**A.** 3.979 ± 0.088 mPa·s

**Q.** What about the mass density ([1]; 298.15 K) of the same molecule?
**A.** 863.35 ± 1.8 kg/m3

**Q.** What about the viscosity ([1]; 303.15 K) of the same molecule?
**A.** 3.519 ± 0.078 mPa·s

**Q.** And the mass density ([1]; 303.15 K)?
**A.** 859.54 ± 1.8 kg/m3

**Q.** And the viscosity ([1]; 308.15 K)?
**A.** 3.093 ± 0.069 mPa·s

**Q.** What about the mass density ([1]; 308.15 K) of the same molecule?
**A.** 855.74 ± 1.7 kg/m3

**Q.** What about the viscosity ([1]; 313.15 K) of the same molecule?
**A.** 2.797 ± 0.062 mPa·s

**Q.** What about the mass density ([1]; 313.15 K) of the same molecule?
**A.** 851.94 ± 1.7 kg/m3

**Q.** And the viscosity ([1]; 318.15 K)?
**A.** 2.544 ± 0.056 mPa·s

**Q.** And the mass density ([1]; 318.15 K)?
**A.** 848.14 ± 1.7 kg/m3

**Q.** What about the viscosity ([1]; 323.15 K) of the same molecule?
**A.** 2.308 ± 0.051 mPa·s

**Q.** And the mass density ([1]; 323.15 K)?
**A.** 844.34 ± 1.7 kg/m3

**Q.** With `CC1CCCCC1` [methylcyclohexane] as the molecule, how does the viscosity ([1]; 293.15 K) read?
**A.** 0.733 ± 0.016 mPa·s

**Q.** What about the mass density ([1]; 293.15 K) of the same molecule?
**A.** 769.38 ± 1.6 kg/m3

**Q.** And the viscosity ([1]; 298.15 K)?
**A.** 0.681 ± 0.015 mPa·s

**Q.** And the mass density ([1]; 298.15 K)?
**A.** 765.06 ± 1.5 kg/m3

**Q.** What about the viscosity ([1]; 303.15 K) of the same molecule?
**A.** 0.638 ± 0.014 mPa·s

**Q.** And the mass density ([1]; 303.15 K)?
**A.** 760.71 ± 1.5 kg/m3

**Q.** And the viscosity ([1]; 308.15 K)?
**A.** 0.599 ± 0.013 mPa·s

**Q.** And the mass density ([1]; 308.15 K)?
**A.** 756.35 ± 1.5 kg/m3

**Q.** And the viscosity ([1]; 313.15 K)?
**A.** 0.563 ± 0.012 mPa·s

**Q.** And the mass density ([1]; 313.15 K)?
**A.** 751.98 ± 1.5 kg/m3

**Q.** What about the viscosity ([1]; 318.15 K) of the same molecule?
**A.** 0.533 ± 0.011 mPa·s

**Q.** What about the mass density ([1]; 318.15 K) of the same molecule?
**A.** 747.59 ± 1.5 kg/m3

**Q.** What about the viscosity ([1]; 323.15 K) of the same molecule?
**A.** 0.505 ± 0.011 mPa·s

**Q.** And the mass density ([1]; 323.15 K)?
**A.** 743.19 ± 1.5 kg/m3

**Q.** For `CC1CCCCC1` [methylcyclohexane] + CCCCCCCCCC(=O)OC, which viscosity ([2]; 293.15 K) is on record?
**A.** 0.733 ± 0.016 mPa·s

**Q.** What about the mass density ([2]; 293.15 K) of the same molecule?
**A.** 769.38 ± 1.6 kg/m3

**Q.** And the viscosity ([2]; 298.15 K)?
**A.** 0.681 ± 0.015 mPa·s

**Q.** What about the mass density ([2]; 298.15 K) of the same molecule?
**A.** 765.06 ± 1.5 kg/m3

**Q.** What about the viscosity ([2]; 303.15 K) of the same molecule?
**A.** 0.638 ± 0.014 mPa·s

**Q.** What about the mass density ([2]; 303.15 K) of the same molecule?
**A.** 760.71 ± 1.5 kg/m3

**Q.** And the viscosity ([2]; 308.15 K)?
**A.** 0.599 ± 0.013 mPa·s

**Q.** And the mass density ([2]; 308.15 K)?
**A.** 756.35 ± 1.5 kg/m3

**Q.** What about the viscosity ([2]; 313.15 K) of the same molecule?
**A.** 0.563 ± 0.012 mPa·s

**Q.** And the mass density ([2]; 313.15 K)?
**A.** 751.98 ± 1.5 kg/m3

**Q.** What about the viscosity ([2]; 318.15 K) of the same molecule?
**A.** 0.533 ± 0.011 mPa·s

**Q.** And the mass density ([2]; 318.15 K)?
**A.** 747.59 ± 1.5 kg/m3

**Q.** What about the viscosity ([2]; 323.15 K) of the same molecule?
**A.** 0.505 ± 0.011 mPa·s

**Q.** What about the mass density ([2]; 323.15 K) of the same molecule?
**A.** 743.19 ± 1.5 kg/m3

**Q.** Which results are given for `CC1CCCCC1` [methylcyclohexane] + CCCCCCCCCCCC(=O)OC?
**A.** viscosity ([2]; 293.15 K): 0.733 ± 0.016 mPa·s; mass density ([2]; 293.15 K): 769.38 ± 1.6 kg/m3; viscosity ([2]; 298.15 K): 0.681 ± 0.015 mPa·s; mass density ([2]; 298.15 K): 765.06 ± 1.5 kg/m3; viscosity ([2]; 303.15 K): 0.638 ± 0.014 mPa·s; mass density ([2]; 303.15 K): 760.71 ± 1.5 kg/m3; viscosity ([2]; 308.15 K): 0.599 ± 0.013 mPa·s; mass density ([2]; 308.15 K): 756.35 ± 1.5 kg/m3; viscosity ([2]; 313.15 K): 0.563 ± 0.012 mPa·s; mass density ([2]; 313.15 K): 751.98 ± 1.5 kg/m3; viscosity ([2]; 318.15 K): 0.533 ± 0.011 mPa·s; mass density ([2]; 318.15 K): 747.59 ± 1.5 kg/m3; viscosity ([2]; 323.15 K): 0.505 ± 0.011 mPa·s; mass density ([2]; 323.15 K): 743.19 ± 1.5 kg/m3

**Q.** Which viscosity ([2]; 293.15 K) does the source give for `CC1CCCCC1` [methylcyclohexane] + CCCCCCCCCCCCCC(=O)OC here?
**A.** 0.733 ± 0.016 mPa·s

**Q.** What about the mass density ([2]; 293.15 K) of the same molecule?
**A.** 769.38 ± 1.6 kg/m3

**Q.** What about the viscosity ([2]; 298.15 K) of the same molecule?
**A.** 0.681 ± 0.015 mPa·s

**Q.** And the mass density ([2]; 298.15 K)?
**A.** 765.06 ± 1.5 kg/m3

**Q.** And the viscosity ([2]; 303.15 K)?
**A.** 0.638 ± 0.014 mPa·s

**Q.** What about the mass density ([2]; 303.15 K) of the same molecule?
**A.** 760.71 ± 1.5 kg/m3

**Q.** What about the viscosity ([2]; 308.15 K) of the same molecule?
**A.** 0.599 ± 0.013 mPa·s

**Q.** What about the mass density ([2]; 308.15 K) of the same molecule?
**A.** 756.35 ± 1.5 kg/m3

**Q.** And the viscosity ([2]; 313.15 K)?
**A.** 0.563 ± 0.012 mPa·s

**Q.** And the mass density ([2]; 313.15 K)?
**A.** 751.98 ± 1.5 kg/m3

**Q.** What about the viscosity ([2]; 318.15 K) of the same molecule?
**A.** 0.533 ± 0.011 mPa·s

**Q.** And the mass density ([2]; 318.15 K)?
**A.** 747.59 ± 1.5 kg/m3

**Q.** What about the viscosity ([2]; 323.15 K) of the same molecule?
**A.** 0.505 ± 0.011 mPa·s

**Q.** And the mass density ([2]; 323.15 K)?
**A.** 743.19 ± 1.5 kg/m3
